# Assay results: ChEMBL document CHEMBL1150838, “Cytotoxic constituents of the fruits of Cananga odorata” (J Nat Prod, 2001)
# Experiments:
# HepG2 = test: Cytotoxicity against human HepG2 cells by MTT assay; type: functional, cell-based
# [1] = Cytotoxicity against human HepG2(2.2.15) cells by MTT assay; type: functional, cell-based
SMILES,IC50 (HepG2) [µg/mL],IC50 [1] [µg/mL]
C[C@@H]1O[C@@H](OC(C)(C)[C@@H]2CC[C@@]3(C)CCC[C@@](C)(O)[C@@H]3C2)[C@H](O)[C@H](O)[C@H]1O,0.01,0.36
CC1=C2C[C@H](C(C)(C)O[C@@H]3O[C@@H](C)[C@H](O)[C@@H](O)[C@H]3O)CC[C@@]2(C)CCC1,3.9,10.6
CC1=C2C[C@H](C(C)(C)O)CC[C@@]2(C)CCC1,1.5,0.01
Cc1ccc2c(n1)C[C@H](C(C)(C)O)CC[C@H]2C [CANANODINE],0.22,3.8
Cc1ccnc2c1C(=O)c1ccccc1C2=O [CLEISTOPHOLINE],0.22,0.54
COc1cc(/C=C/C(=O)NCCc2ccc(O)cc2)ccc1O [N-TRANS-FERULOYL TYRAMINE],6.6,1.9
